The subject of this assay is L1210 leukemia ip in BDF1 mice, survival T/C. The assay is described as follows: NCI In Vivo Anticancer Drug Screen. Data for tumor model L1210 Leukemia (intraperitoneal) in B6D2F1 (BDF1) mice. The note with it: endpoint: mean survival time, higher = longer survival. An outline of the steps:
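Ratio derived from survival: compound-dosed mice over vehicle-dosed mice, all bearing a transplantable tumor.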

Setting [1] is: dose: 100.0 mg/kg/injection, schedule: Q01DX009 (ip), vehicle: saline with Tween-80.
[2] abbreviates: dose: 100.0 mg/kg/injection, schedule: Q01DX009 (ip), vehicle: Klucel (hydroxypropylcellulose) (HPC).
Where [3] appears, read: dose: 100.0 mg/kg/injection, schedule: Q04DX003 (ip), vehicle: Klucel (hydroxypropylcellulose) (HPC).
[4] abbreviates: dose: 200.0 mg/kg/injection, schedule: Q01DX009 (ip), vehicle: Klucel (hydroxypropylcellulose) (HPC).
Where [5] appears, read: dose: 200.0 mg/kg/injection, schedule: Q04DX003 (ip), vehicle: Klucel (hydroxypropylcellulose) (HPC).
The mark [6] stands for this setting: dose: 400.0 mg/kg/injection, schedule: Q01DX009 (ip), vehicle: Klucel (hydroxypropylcellulose) (HPC).
Setting [7] is: dose: 400.0 mg/kg/injection, schedule: Q04DX003 (ip), vehicle: Klucel (hydroxypropylcellulose) (HPC).
The mark [8] stands for this setting: dose: 100.0 mg/kg/injection, schedule: Q01DX001 (ip), vehicle: saline.
Where [9] appears, read: dose: 200.0 mg/kg/injection, schedule: Q01DX001 (ip), vehicle: saline.
Where [10] appears, read: dose: 400.0 mg/kg/injection, schedule: Q01DX001 (ip), vehicle: saline.
Where [11] appears, read: dose: 100.0 mg/kg/injection, schedule: Q04DX002 (ip), vehicle: Klucel (hydroxypropylcellulose) (HPC).
Setting [12] is: dose: 200.0 mg/kg/injection, schedule: Q04DX002 (ip), vehicle: Klucel (hydroxypropylcellulose) (HPC).
Setting [13] is: dose: 400.0 mg/kg/injection, schedule: Q04DX002 (ip), vehicle: Klucel (hydroxypropylcellulose) (HPC).
The mark [14] stands for this setting: dose: 50.0 mg/kg/injection, schedule: Q01DX009 (ip), vehicle: saline.
[15] abbreviates: dose: 100.0 mg/kg/injection, schedule: Q04DX003 (ip), vehicle: saline.
[16] abbreviates: dose: 200.0 mg/kg/injection, schedule: Q04DX003 (ip), vehicle: saline.
Where [17] appears, read: dose: 25.0 mg/kg/injection, schedule: Q01DX009 (ip), vehicle: saline.

Each structure is given as a SMILES string. Inconclusive results and toxic doses are left out.

Here are results for 17 molecules from PubChem BioAssay AID248 (DTP/NCI, 2004).

Regarding `CC(C)=CC1CC(C)C2(CCC3(C)CC4C(C(=O)CC4(C)O)/C(C=O)=C\CC32)O1` (centres undefined), the T/C runs as follows: (dose: 5.0 mg/kg/injection, schedule: Q01DX001 (ip), vehicle: saline) 103 % of control; (dose: 10.0 mg/kg/injection, schedule: Q01DX001 (ip), vehicle: saline) 97 % of control; (dose: 20.0 mg/kg/injection, schedule: Q01DX001 (ip), vehicle: saline) 97 % of control; (dose: 40.0 mg/kg/injection, schedule: Q01DX001 (ip), vehicle: saline) 97 % of control; (dose: 80.0 mg/kg/injection, schedule: Q01DX001 (ip), vehicle: saline) 109 % of control.

For the molecule `Nc1ccc(Cl)cc1N`, the T/C was 100 % of control (dose: 90.0 mg/kg/injection, schedule: Q01DX001 (ip), vehicle: other); 97 % of control (dose: 90.0 mg/kg/injection, schedule: Q04DX003 (ip), vehicle: other); 104 % of control under setting [1]; 107 % of control (dose: 100.0 mg/kg/injection, schedule: Q04DX002 (ip), vehicle: other); 105 % of control (dose: 175.0 mg/kg/injection, schedule: Q01DX001 (ip), vehicle: other); 111 % of control (dose: 175.0 mg/kg/injection, schedule: Q01DX009 (ip), vehicle: other). Also, the T/C is 100 % of control (dose: 175.0 mg/kg/injection, schedule: Q04DX003 (ip), vehicle: other); 114 % of control (dose: 200.0 mg/kg/injection, schedule: Q01DX009 (ip), vehicle: saline with Tween-80); 107 % of control (dose: 200.0 mg/kg/injection, schedule: Q04DX002 (ip), vehicle: other); 99 % of control (dose: 265.0 mg/kg/injection, schedule: Q01DX001 (ip), vehicle: other); 151 % of control (dose: 265.0 mg/kg/injection, schedule: Q01DX009 (ip), vehicle: other); 106 % of control (dose: 265.0 mg/kg/injection, schedule: Q04DX003 (ip), vehicle: other). Besides, the T/C reads like this: (dose: 400.0 mg/kg/injection, schedule: Q01DX001 (ip), vehicle: other) 110 % of control; (dose: 400.0 mg/kg/injection, schedule: Q04DX002 (ip), vehicle: other) 114 % of control; (dose: 400.0 mg/kg/injection, schedule: Q04DX003 (ip), vehicle: other) 104 % of control.

As to `O=[N+]([O-])c1ccc(Oc2ccc[n+]([O-])c2)nc1`, the T/C is, setting by setting: under setting [2], 103 % of control; under setting [3], 93 % of control; under setting [4], 101 % of control; under setting [5], 96 % of control; under setting [6], 98 % of control; under setting [7], 95 % of control.

For `S=P(NC1CCCCC1)(NC1CCCCC1)NC1CCCCC1`, the T/C was 95 % of control under setting [8]; 101 % of control (dose: 100.0 mg/kg/injection, schedule: Q04DX003 (ip), vehicle: saline with Tween-80); 95 % of control under setting [9]; 97 % of control (dose: 200.0 mg/kg/injection, schedule: Q04DX003 (ip), vehicle: saline with Tween-80); 90 % of control under setting [10]; 97 % of control (dose: 400.0 mg/kg/injection, schedule: Q04DX003 (ip), vehicle: saline with Tween-80).

For `CCCCCCCCC(SC#N)C(CCCCCCCC(=O)O)SC#N` (centres undefined), the T/C by setting is: under setting [11], 100 % of control; under setting [12], 95 % of control; under setting [13], 106 % of control.

Turning to `CN(C)C1CCN(Cc2ccccc2)CC1`, the T/C reads like this: under setting [14], 94 % of control; (dose: 50.0 mg/kg/injection, schedule: Q04DX003 (ip), vehicle: saline) 100 % of control; (dose: 100.0 mg/kg/injection, schedule: Q01DX009 (ip), vehicle: saline) 96 % of control; under setting [15], 97 % of control; (dose: 200.0 mg/kg/injection, schedule: Q01DX009 (ip), vehicle: saline) 93 % of control; under setting [16], 92 % of control.

Turning to `O=C(Nc1cccc(F)c1)OCc1ccco1`, the T/C is 95 % of control (dose: 100.0 mg/kg/injection, schedule: Q01DX009 (sc), vehicle: olive oil, sesame oil, peanut oil); 96 % of control (dose: 200.0 mg/kg/injection, schedule: Q01DX009 (sc), vehicle: olive oil, sesame oil, peanut oil); 95 % of control (dose: 400.0 mg/kg/injection, schedule: Q01DX009 (sc), vehicle: olive oil, sesame oil, peanut oil).

`CCOC(=O)C(C)C(OCC)OCC` (centres undefined): the T/C under setting [2] was 96 % of control; the T/C under setting [3] is 90 % of control; the T/C under setting [4] is 104 % of control; the T/C under setting [5] is 103 % of control; the T/C under setting [6] is 89 % of control; the T/C under setting [7] was 107 % of control.

On to `Cc1nc(N)ncc1CCC1OCCO1`, for which the T/C was 91 % of control (dose: 25.0 mg/kg/injection, schedule: Q04DX002 (ip), vehicle: saline); 100 % of control (dose: 50.0 mg/kg/injection, schedule: Q04DX002 (ip), vehicle: saline); 175 % of control under setting [11]; 107 % of control (dose: 100.0 mg/kg/injection, schedule: Q04DX002 (ip), vehicle: saline); 103 % of control (dose: 200.0 mg/kg/injection, schedule: Q04DX002 (ip), vehicle: saline).

Turning to `C=CC[n+]1ccccc1Cc1ccccc1`, the T/C is, setting by setting: (dose: 6.25 mg/kg/injection, schedule: Q01DX009 (ip), vehicle: saline) 100 % of control; (dose: 12.5 mg/kg/injection, schedule: Q01DX009 (ip), vehicle: saline) 108 % of control; (dose: 12.5 mg/kg/injection, schedule: Q04DX003 (ip), vehicle: saline) 104 % of control; under setting [17], 103 % of control; (dose: 25.0 mg/kg/injection, schedule: Q04DX003 (ip), vehicle: saline) 107 % of control.

In the case of `Clc1nnc(-c2ccccc2)c(-c2ccccc2)n1`, the T/C reads like this: (dose: 25.0 mg/kg/injection, schedule: Q01DX009 (ip), vehicle: saline with Tween-80) 95 % of control; (dose: 50.0 mg/kg/injection, schedule: Q01DX009 (ip), vehicle: saline with Tween-80) 95 % of control; under setting [1], 97 % of control.

In the case of `CC(C)(C)C1CCCCC1O` (centres undefined), the T/C was 92 % of control under setting [8], 97 % of control under setting [9] and 92 % of control under setting [10].

`O=C(NNc1c(Cl)cc(Cl)cc1Cl)C(O)C(O)C(O)C(O)CO` (centres undefined): the T/C is 91 % of control under setting [15]; 87 % of control under setting [16]; 87 % of control (dose: 400.0 mg/kg/injection, schedule: Q04DX003 (ip), vehicle: saline).

`CC1(C)C2CC3C(=CCCC3(Cl)C#N)C1C2` (centres undefined): the T/C is 98 % of control under setting [2]; 106 % of control under setting [3]; 102 % of control under setting [4]; 101 % of control under setting [5]; 93 % of control under setting [6]; 97 % of control under setting [7].

As for `Cc1[nH]nc(-c2cccnc2)c1N=NN(C)C`, the T/C was 110 % of control (dose: 75.0 mg/kg/injection, schedule: Q01DX001 (ip), vehicle: saline); 106 % of control (dose: 150.0 mg/kg/injection, schedule: Q01DX001 (ip), vehicle: saline); 111 % of control (dose: 300.0 mg/kg/injection, schedule: Q01DX001 (ip), vehicle: saline).

As for `CN(C)c1ccc(SSc2ccc(N(C)C)cc2)cc1`, the T/C under setting [8] was 104 % of control; the T/C under setting [11] is 98 % of control; the T/C under setting [9] is 93 % of control; the T/C under setting [12] is 102 % of control; the T/C under setting [10] was 98 % of control; the T/C under setting [13] is 91 % of control.

`OCCCCc1nccc2c1[nH]c1ccccc12`: the T/C is 93 % of control under setting [17]; 88 % of control under setting [14]; 86 % of control (dose: 100.0 mg/kg/injection, schedule: Q01DX001 (ip), vehicle: carboxymethylcellulose (CMC)); 93 % of control (dose: 200.0 mg/kg/injection, schedule: Q01DX001 (ip), vehicle: carboxymethylcellulose (CMC)); 98 % of control (dose: 400.0 mg/kg/injection, schedule: Q01DX001 (ip), vehicle: carboxymethylcellulose (CMC)).
